Calls of active or inactive are those of the source.
What was measured:
Vero = experiment: viability loss in Vero cells – cell-based, plate reader, cherry-pick samples, cytotoxicity control, dose response (AID 687020); type: functional; details: Chlorocebus sabaeus
[1] = viability loss in HeLa cells – cytotoxicity control for MgcRacGAP inhibitor project, dose response (AID 624300); type: functional
[2] = target: Glucose-6-phosphate 1-dehydrogenase (Homo sapiens, UniProt P11413); experiment: inhibition of Homo sapiens G6PD, dose series – biochemical, fluorescence, selectivity assay for P. falciparum G6PD inhibitor project, dose response (AID 504792); type: functional
Sequence of Glucose-6-phosphate 1-dehydrogenase (P11413 whole entry): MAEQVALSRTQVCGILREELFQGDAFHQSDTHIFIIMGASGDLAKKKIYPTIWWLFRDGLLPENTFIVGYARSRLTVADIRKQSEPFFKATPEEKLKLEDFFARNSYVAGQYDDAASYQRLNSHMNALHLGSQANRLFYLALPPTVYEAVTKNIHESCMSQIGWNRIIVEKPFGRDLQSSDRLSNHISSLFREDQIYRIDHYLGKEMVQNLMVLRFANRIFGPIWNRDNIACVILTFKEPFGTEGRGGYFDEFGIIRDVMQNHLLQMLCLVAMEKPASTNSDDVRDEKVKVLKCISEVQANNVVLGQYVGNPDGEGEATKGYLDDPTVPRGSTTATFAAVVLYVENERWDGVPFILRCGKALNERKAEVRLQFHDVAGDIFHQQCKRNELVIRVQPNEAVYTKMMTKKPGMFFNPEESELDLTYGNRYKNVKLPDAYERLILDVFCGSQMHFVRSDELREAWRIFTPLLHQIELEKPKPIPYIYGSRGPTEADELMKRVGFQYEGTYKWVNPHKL

[3] = LMP1-induced NF-kB luciferase signal inhibition – cell-based, EBV LMP1, dry powder, set 2, dose response (AID 624361); type: functional
[4] = inhibitors of EBV LMP1 NF-kappaB signaling – cell-based, luciferase reporter, luminescence, dry powder, set 2, dose response (AID 624376); type: functional
[5] = TNFa-induced NF-kB reporter signal decrease – HEK293 LMP1 reporter cells, dry powder, set 2, selectivity assay for EBV LMP1 NF-kB inhibitor project, dose response (AID 624369); type: functional
[6] = target: Fructose-bisphosphate aldolase (Mycobacterium tuberculosis, UniProt P9WQA3); experiment: Fluorescence-based biochemical high throughput dose response assay for inhibitors of the fructose-bisphosphate aldolase (FBA) of M. tuberculosis.; type: functional
Sequence of Fructose-bisphosphate aldolase (P9WQA3 whole entry): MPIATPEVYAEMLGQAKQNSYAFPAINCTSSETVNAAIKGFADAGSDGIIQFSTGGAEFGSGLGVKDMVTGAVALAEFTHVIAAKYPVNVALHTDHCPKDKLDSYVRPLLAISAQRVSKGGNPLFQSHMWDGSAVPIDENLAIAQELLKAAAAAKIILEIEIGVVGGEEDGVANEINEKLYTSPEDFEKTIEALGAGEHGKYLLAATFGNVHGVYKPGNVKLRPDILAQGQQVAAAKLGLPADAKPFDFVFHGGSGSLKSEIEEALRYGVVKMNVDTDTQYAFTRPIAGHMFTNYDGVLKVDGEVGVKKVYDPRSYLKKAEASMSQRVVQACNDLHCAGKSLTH

[7] = target: Tyrosine-protein phosphatase non-receptor type 11 (Homo sapiens, UniProt Q06124); experiment: PTPN11 enzyme inhibitors – biochemical, selectivity assay for STEP inhibitor project, dose response (AID 602367); type: functional; details: read-out: IC50_Mean
Sequence of Tyrosine-protein phosphatase non-receptor type 11 (Q06124 whole entry): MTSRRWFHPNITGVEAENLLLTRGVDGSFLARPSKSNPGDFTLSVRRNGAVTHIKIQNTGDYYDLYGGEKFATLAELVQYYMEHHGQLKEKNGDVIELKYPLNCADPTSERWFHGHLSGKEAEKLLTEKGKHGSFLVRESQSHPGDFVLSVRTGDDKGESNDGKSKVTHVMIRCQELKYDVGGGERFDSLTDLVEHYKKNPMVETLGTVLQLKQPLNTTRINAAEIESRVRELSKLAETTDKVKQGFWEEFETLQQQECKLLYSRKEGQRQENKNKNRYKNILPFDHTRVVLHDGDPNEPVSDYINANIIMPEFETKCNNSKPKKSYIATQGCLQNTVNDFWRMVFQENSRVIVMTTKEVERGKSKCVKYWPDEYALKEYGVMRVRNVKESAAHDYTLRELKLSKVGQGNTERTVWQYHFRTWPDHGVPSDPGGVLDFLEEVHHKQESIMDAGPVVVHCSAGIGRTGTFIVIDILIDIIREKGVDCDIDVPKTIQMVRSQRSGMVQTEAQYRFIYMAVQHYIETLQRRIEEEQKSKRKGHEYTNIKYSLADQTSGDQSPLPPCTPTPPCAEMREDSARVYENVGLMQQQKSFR

[8] = target: Tyrosine-protein phosphatase non-receptor type 5 (Homo sapiens, UniProt P54829); experiment: PTPN5 enzyme inhibition – biochemical, fluorescence intensity, uHTS hits, confirmation (AID 602372); type: functional; details: read-out: IC50_Mean
Sequence of Tyrosine-protein phosphatase non-receptor type 5 (P54829 whole entry): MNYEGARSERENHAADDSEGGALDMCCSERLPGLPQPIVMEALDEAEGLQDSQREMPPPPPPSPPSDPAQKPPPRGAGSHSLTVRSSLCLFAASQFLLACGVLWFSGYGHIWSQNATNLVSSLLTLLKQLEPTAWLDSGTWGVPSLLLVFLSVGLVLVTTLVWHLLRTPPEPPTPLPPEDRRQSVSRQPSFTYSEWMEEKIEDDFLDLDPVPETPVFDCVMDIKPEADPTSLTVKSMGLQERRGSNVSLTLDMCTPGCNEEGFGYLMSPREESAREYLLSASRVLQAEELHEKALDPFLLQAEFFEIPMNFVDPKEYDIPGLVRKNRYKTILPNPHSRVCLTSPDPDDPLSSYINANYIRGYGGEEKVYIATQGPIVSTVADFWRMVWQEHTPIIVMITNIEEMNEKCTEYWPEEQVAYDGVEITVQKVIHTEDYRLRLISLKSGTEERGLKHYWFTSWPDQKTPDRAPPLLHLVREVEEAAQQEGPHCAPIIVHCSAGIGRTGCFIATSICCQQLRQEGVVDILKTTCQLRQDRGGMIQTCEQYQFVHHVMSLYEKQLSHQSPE

[9] = target: T1, Tyrosine-protein phosphatase non-receptor type 22 (Homo sapiens, UniProt Q9Y2R2); experiment: lymphoid phosphatase LYP inhibitors – biochemical, selectivity assay for STEP inhibitor project, dose response (AID 624241); type: functional
T1 sequence (Q9Y2R2 whole entry): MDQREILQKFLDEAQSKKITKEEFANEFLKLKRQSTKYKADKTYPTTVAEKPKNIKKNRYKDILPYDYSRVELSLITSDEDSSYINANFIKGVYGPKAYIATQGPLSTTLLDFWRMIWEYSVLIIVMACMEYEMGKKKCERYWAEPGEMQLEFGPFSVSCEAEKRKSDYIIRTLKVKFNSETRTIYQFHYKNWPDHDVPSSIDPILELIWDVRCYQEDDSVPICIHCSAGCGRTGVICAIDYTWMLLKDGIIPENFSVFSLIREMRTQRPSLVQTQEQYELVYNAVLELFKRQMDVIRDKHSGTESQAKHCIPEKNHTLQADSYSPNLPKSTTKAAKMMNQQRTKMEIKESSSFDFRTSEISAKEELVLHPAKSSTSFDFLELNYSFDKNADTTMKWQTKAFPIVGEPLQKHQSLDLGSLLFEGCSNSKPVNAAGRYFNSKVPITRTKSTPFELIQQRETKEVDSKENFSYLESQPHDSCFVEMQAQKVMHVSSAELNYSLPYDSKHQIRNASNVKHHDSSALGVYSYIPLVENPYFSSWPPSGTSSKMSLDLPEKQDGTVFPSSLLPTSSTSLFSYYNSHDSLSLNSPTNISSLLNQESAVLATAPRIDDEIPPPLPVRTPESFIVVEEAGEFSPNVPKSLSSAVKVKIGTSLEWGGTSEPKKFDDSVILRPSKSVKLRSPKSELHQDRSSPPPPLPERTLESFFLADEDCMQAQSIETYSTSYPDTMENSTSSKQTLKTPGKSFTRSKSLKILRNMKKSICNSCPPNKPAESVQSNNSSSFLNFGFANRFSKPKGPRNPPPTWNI

[10] = target: Dual specificity protein phosphatase 3 (Homo sapiens, UniProt P51452); experiment: VHR phosphatase inhibition, dose response, selectivity assay for STEP inhibitor project, biochemical (AID 602374); type: functional; details: read-out: IC50_Mean
Paired box protein Pax-8 = Paired box protein Pax-8 (Homo sapiens, UniProt Q06710); experiment: PAX8 transcriptional activity inhibition in RMG-I – RMG-I cells, luciferase, cherry-pick, dose response (AID 687027); type: functional, cell-based;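 note: luciferase reporter driven by Pax8 target thyroperoxidase promoter measured by SteadyGlo luminescence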
Sequence of Paired box protein Pax-8 (Q06710 whole entry): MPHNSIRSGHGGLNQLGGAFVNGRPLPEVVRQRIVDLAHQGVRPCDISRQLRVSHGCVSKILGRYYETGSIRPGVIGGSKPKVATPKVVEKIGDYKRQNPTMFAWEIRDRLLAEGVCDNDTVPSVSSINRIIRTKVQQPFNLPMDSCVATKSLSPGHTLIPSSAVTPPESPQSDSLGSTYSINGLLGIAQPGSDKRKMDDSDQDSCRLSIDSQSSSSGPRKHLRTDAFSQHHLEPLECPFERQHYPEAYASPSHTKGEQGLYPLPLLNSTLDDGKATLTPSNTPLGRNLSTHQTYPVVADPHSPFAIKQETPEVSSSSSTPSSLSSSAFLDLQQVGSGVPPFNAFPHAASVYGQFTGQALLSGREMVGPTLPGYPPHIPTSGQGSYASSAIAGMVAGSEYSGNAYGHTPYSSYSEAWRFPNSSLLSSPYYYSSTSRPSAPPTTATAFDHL

[11] = target: SWI/SNF-related matrix-associated actin-dependent regulator of chromatin subfamily A member 2 (Homo sapiens, UniProt P51531); experiment: Luminescence-based cell-based high throughput dose response assay to identify activators of the function of SWI/SNF related, matrix associated, actin dependent regulator of chromatin, subfamily a, member 2 (SMARCA2, BRM).; type: functional
Sequence of SWI/SNF-related matrix-associated actin-dependent regulator of chromatin subfamily A member 2 (P51531 whole entry): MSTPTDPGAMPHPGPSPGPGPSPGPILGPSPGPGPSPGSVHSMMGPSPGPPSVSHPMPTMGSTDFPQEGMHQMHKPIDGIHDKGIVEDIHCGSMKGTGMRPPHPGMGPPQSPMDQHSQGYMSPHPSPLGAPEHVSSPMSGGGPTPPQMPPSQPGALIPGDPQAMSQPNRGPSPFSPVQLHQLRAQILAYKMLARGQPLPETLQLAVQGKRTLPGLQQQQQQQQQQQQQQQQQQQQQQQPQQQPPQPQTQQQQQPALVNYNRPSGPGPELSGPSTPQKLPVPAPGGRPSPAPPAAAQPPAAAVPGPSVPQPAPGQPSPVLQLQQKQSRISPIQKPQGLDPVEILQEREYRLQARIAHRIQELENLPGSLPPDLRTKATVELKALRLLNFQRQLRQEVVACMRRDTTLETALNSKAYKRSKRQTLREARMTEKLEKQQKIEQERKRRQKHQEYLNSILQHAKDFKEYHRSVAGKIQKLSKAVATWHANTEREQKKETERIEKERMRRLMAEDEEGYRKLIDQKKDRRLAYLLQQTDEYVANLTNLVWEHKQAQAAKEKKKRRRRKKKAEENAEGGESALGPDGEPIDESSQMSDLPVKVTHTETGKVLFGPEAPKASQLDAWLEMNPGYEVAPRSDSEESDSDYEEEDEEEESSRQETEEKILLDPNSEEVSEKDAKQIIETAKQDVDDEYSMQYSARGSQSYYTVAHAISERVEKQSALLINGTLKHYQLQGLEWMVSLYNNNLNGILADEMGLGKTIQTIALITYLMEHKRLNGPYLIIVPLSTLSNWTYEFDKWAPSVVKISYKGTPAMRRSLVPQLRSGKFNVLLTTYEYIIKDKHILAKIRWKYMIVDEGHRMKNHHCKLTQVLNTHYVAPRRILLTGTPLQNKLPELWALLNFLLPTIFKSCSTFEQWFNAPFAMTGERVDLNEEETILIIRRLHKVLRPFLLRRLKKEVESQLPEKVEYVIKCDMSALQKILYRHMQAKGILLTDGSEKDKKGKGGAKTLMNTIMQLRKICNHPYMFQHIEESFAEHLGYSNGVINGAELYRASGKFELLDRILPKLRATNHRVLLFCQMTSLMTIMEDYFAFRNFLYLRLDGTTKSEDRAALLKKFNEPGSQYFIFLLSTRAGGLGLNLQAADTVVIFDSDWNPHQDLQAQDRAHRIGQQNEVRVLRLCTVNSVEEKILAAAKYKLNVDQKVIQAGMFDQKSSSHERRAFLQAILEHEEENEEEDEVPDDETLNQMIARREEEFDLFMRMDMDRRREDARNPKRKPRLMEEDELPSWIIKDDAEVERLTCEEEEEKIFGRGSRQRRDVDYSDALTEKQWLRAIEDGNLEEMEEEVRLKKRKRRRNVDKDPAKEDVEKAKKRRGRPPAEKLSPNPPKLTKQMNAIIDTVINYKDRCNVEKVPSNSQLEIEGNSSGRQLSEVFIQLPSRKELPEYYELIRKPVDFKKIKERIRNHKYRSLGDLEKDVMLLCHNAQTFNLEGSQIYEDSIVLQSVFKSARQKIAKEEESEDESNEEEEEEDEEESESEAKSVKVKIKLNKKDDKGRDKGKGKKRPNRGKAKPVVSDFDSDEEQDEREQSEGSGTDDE

[12] = Counterscreen for activators of the function of SWI/SNF related, matrix associated, actin dependent regulator of chromatin, subfamily a, member 2 (SMARCA2, BRM): Luminescence-based cell-based high throughput dose response assay to identify non-selective compounds using the VP16 reporter assay.; type: functional
[13] = target: Potassium channel subfamily K member 9 (Homo sapiens, UniProt Q9NPC2); experiment: KCNK9 flux blockade, concentration-response – cell-based, FluxOR thallium flux, selectivity assay for TASK1 inhibitor project, SAR follow-up (AID 652211); type: functional;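 note: potency is for inhibitors of the channel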
Sequence of Potassium channel subfamily K member 9 (Q9NPC2 whole entry): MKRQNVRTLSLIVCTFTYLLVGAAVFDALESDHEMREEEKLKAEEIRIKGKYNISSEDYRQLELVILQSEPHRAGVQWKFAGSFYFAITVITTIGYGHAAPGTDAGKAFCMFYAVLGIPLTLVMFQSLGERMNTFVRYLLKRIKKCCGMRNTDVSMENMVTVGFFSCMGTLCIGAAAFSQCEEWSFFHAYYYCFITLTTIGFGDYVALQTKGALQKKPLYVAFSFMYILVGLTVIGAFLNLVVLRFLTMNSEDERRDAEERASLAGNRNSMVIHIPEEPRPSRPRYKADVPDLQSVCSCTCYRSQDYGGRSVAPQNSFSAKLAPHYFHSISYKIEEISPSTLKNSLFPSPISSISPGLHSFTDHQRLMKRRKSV

Beta-lactamase [14] = target: T2, Beta-lactamase (Pseudomonas aeruginosa, UniProt Q79MP6); experiment: inhibition of IMP-1 beta-lactamase activity – biochemical, epi-absorbance, selectivity assay for VIM-2 inhibitor project, dose response (AID 1920)
T2 sequence (Q79MP6 whole entry): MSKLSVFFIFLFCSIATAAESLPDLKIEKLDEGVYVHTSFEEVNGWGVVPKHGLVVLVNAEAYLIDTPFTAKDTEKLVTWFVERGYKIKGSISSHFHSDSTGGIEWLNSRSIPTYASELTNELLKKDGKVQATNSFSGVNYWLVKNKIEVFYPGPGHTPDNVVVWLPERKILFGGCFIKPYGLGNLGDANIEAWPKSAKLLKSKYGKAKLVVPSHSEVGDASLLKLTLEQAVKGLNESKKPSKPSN

Beta-lactamase [15] = target: Beta-lactamase (Salmonella choleraesuis (strain SC-B67), UniProt Q5J463); experiment: Epi-absorbance-based counterscreen for selective VIM-2 inhibitors: dose response biochemical high throughput screening assay to identify inhibitors of TEM-1 serine-beta-lactamase.
Sequence of Beta-lactamase (Salmonella choleraesuis (strain SC-B67), UniProt Q5J463) (Q5J463 whole entry): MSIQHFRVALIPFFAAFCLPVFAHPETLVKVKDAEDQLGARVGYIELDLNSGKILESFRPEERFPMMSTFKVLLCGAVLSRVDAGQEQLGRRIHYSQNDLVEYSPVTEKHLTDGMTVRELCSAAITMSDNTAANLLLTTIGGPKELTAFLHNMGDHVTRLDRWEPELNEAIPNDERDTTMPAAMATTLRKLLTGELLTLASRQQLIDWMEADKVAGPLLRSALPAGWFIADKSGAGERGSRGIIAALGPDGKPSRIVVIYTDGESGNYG

Beta-lactamase [16] = target: T2, Beta-lactamase; experiment: […] counterscreen for selective VIM-2 inhibitors: dose response biochemical high throughput screening assay to identify inhibitors of IMP-1 metallo-beta-lactamase.
[17] = activation of miR-122 Renilla sensor silencing – cell-based, Huh7 psiCHECK-miR122, Renilla luciferase, cherry-picked, dose response (AID 651956); type: functional;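 note: huh7 hepatoma cells stably carrying a psiCHECK-2 miR-122 sensor plasmid; renilla luciferase signal reporting endogenous miR-122 activity after 48 h compound exposure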
Aminopeptidase N = target: T3, Aminopeptidase N (Plasmodium falciparum FcB1/Columbia, UniProt O96935); experiment: malaria alanyl aminopeptidase activity blockers – biochemical, fluorogenic H-Leu-NHMec substrate, 1536-well (AID 1445); set-up: species or system Plasmodium falciparum 3D7, 3D7
T3 sequence (O96935 whole entry): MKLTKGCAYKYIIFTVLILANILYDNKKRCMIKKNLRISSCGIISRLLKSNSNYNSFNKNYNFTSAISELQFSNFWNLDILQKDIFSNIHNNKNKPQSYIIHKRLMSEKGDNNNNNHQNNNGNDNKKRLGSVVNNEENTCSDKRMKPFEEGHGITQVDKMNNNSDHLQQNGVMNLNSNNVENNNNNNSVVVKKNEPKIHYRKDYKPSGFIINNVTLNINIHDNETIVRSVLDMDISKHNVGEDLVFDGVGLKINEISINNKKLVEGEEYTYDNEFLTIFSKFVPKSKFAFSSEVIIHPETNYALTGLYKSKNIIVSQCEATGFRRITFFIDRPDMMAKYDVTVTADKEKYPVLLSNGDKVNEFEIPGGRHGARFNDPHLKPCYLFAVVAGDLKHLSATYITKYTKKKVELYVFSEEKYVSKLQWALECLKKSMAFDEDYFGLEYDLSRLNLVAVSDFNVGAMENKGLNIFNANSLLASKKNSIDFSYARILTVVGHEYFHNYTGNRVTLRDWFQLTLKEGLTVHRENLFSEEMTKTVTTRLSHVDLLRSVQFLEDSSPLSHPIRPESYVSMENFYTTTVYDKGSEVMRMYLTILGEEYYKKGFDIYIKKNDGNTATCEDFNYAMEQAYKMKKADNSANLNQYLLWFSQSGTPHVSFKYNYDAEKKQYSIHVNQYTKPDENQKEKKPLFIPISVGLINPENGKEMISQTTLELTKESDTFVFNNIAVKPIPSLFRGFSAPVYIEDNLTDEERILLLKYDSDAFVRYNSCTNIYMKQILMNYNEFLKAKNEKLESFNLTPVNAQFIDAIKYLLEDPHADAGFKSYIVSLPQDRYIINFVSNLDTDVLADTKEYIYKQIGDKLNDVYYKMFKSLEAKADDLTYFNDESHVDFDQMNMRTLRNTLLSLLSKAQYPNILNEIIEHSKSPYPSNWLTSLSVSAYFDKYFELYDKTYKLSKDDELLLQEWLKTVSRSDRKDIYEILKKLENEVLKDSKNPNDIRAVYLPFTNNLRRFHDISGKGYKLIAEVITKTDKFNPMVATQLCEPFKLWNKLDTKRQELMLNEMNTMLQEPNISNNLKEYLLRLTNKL

[18] = general mammalian cell viability loss – inhibitor set, cherry-pick, set 2, cytotoxicity control for miR-122 modulator project, dose response (AID 720697); type: functional, cell-based
[19] = A549 cell cytotoxicity, dose response, cytotoxicity control, plate reader, cherry-pick, antagonist series (AID 743412); type: functional, cell-based
[20] = blockers of HIV-1 envelope-mediated cell-cell fusion – cherry-pick, dose response (AID 652057); type: functional, cell-based
[21] = blockers of HIV-1 ZM109 envelope-driven cell-cell fusion – HeLa effector, CEM target cells, luciferase, cherry-pick, dose response (AID 652058); type: functional, cell-based;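 note: luciferase signal from HIV-1 Env mediated cell-cell fusion of effector and target cells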
[22] = toxicity toward HepG2 liver cells – cell-based, plate reader, cherry-pick, antagonist series, cytotoxicity control, dose response (AID 743416); type: functional
[23] = off-target signal loss in HeLa-CEM21 co-culture – HeLa F-luc CTL cells, cherry-picked, counter-screen for HIV-1 Env fusion inhibitor project, dose response (AID 652040); type: functional, cell-based;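 note: potency for signal decrease marking cytotoxic or nonspecific inhibition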
[24] = HEK-293T cell viability reduction – luminescence, B-cell screen hits, cytotoxicity control for BCR NF-kB inhibitor project, dose response (AID 489021); type: functional, cell-based;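 note: HEK-293T cells carrying an NF-kB luciferase reporter; cells exposed to compound for about 14 hours before viability readout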
[25] = viability loss in CEM21 cells – cell-based, CellTiter-Glo luminescence, cherry-picked, cytotoxicity control for viral fusion inhibitor project, dose response (AID 652042); type: functional;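 note: potency for signal decrease meaning cytotoxicity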
[26] = blockade of melanocortin 4 receptor signaling – cell-based, plate reader, cherry pick, counter-screen for LGR2 antagonist project, dose response (AID 743444); type: functional;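 note: transfected HEK 293 cells stimulated with alpha-MSH peptide; potency of inhibitors of the alpha-MSH evoked signal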
[27] = blockers of bursicon-stimulated LGR2 cAMP reporter – cell-based, HEK293, CRE-luciferase reporter, cherry pick, set 2, dose response (AID 743343); type: functional;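 note: transfected cells were stimulated with diluted bursicon conditioned medium after compound addition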
[28] = HIV-1 AD8 envelope cell-cell fusion blockers – cherry-pick, dose response (AID 652062); type: functional, cell-based;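 note: luciferase signal from cell-cell fusion driven by HIV-1 clade B AD8 Env; potency is for inhibitors of fusion seen as a drop in luminescence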
[29] = viability loss in HEK293 cells – cell-based, plate reader, cherry-picked samples, cytotoxicity control, dose response (AID 743446); type: functional
INS1 = experiment: INS-1E survival protection against cytokine death – cell-based, luminescence, retest, dose response (AID 449756); type: functional; details: Rattus norvegicus;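 note: cell death triggered by IL-1 beta plus TNF-alpha plus IFN-gamma mixture; protective hits raise ATP signal compared with cytokine alone wells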
A549 = experiment: viability loss in A549 cells – cell-based, plate reader, cherry-pick samples, cytotoxicity control, dose response (AID 687028); type: functional; details: Homo sapiens
[30] = cytotoxicity in HEK293 background cells – cell-based, dry powder, set 2, counter-screen for EBV LMP1 inhibitor project, dose response (AID 624374); type: functional

Structure (SMILES): CCCCC[C@H]1CN(CCc2ccccc2)C(=O)[C@@H]1CC(=O)NCc1ccc(OC)cc1
- AC50 (Vero): 33.9 µM (active)

Structure (SMILES): O=[N+]([O-])c1cnc(Sc2ccncn2)c([N+](=O)[O-])c1
- CC50 [1]: 34.1 µM (active)
- IC50 [2]: > 80 µM (inactive)

Structure (SMILES): CC(C)NC(=O)N1[C@H](CO)[C@H](c2ccc(C#CC3CCCCC3)cc2)[C@@H]1C#N
- AbsAC35 [3]: 53.56 µM
- AbsAC35 [4]: 62.28 µM
- AbsAC35 [5]: 202.7 µM

Structure (SMILES): CC(=O)NN1C(=O)c2ccccc2NC1c1ccccn1 (stereo not given)
- IC50 [6]: 3.49 µM (active)

Structure (SMILES): SC1=NC2=C(CCCC2=C2SCCS2)C(c2ccccc2)N1 (stereo not given)
- IC50 [7]: 5.27 µM (active)
- IC50 [8]: 22.6 µM (inactive)
- IC50 [9]: > 100 µM (inactive)
- IC50 [10]: 1.23 µM (active)

Structure (SMILES): CN(C)c1ncnc2c1nnn2C1OC(CO)C(O)C1O (stereo not given)
- AC50 (Paired box protein Pax-8): < 0.26 µM (active)
- EC50 [11]: > 91.2 µM (inactive)
- EC50 [12]: > 91.2 µM (inactive)

Structure (SMILES): Cc1cccc(C(=O)Nc2cccc(NC(=O)c3ccccc3Cl)c2)c1
- IC50 [13]: 19.8 µM (active)

Structure (SMILES): O=C(CSc1nnc(NC(=O)C2CC2)s1)NCc1ccccc1Cl
- IC50 (Beta-lactamase [14]): > 59.6 µM (inactive)
- IC50 (Beta-lactamase [15]): > 59.6 µM (inactive)
- IC50 (Beta-lactamase [16]): > 59.6 µM (inactive)

Structure (SMILES): Cc1cc(NS(=O)(=O)c2ccc(NC(=O)C(CC(C)C)N3C(=O)c4ccccc4C3=O)cc2)nc(C)n1 (stereo not given)
- AC50 [17]: 49.8 µM (active)
- IC50 (Aminopeptidase N): 38 µM (active)
- AC50 [18]: 8.51 µM (active)

Structure (SMILES): CC(C)CN(C(=O)COC(=O)C12CC3CC(CC(C3)C1)C2)c1c(N)n(Cc2ccccc2)c(=O)[nH]c1=O
- AC50 [19]: 8.64 µM (active)
- AC50 [20]: 9.69 µM (active)
- AC50 [21]: 11.4 µM (active)
- AC50 [22]: 13.7 µM (active)
- AC50 [23]: 17 µM (active)
- IC50 [24]: > 80 µM (inactive)
- AC50 [25]: 13.1 µM (active)
- AC50 [26]: 30.2 µM (active)
- AC50 [27]: 43.8 µM (active)
- AC50 [28]: 18.3 µM (active)
- AC50 [29]: 16.6 µM (active)
- AC50 (INS1): 3.62 µM (active)

Structure (SMILES): CC1(C(=O)NCc2cccs2)Cc2c(-c3cccc(C(F)(F)F)c3)ccnc2O1 (stereo not given)
- AC50 (A549): 17.6 µM (active)

Structure (SMILES): C[C@@H]1CN([C@@H](C)CO)C(=O)c2c(c3ccccc3n2C)-c2ccccc2CO[C@H]1CN(C)C(=O)Nc1ccc(F)cc1
- AbsAC35 [30]: 204.77 µM
